Experimental data as given in patent US10556865B2, “Synergistic herbicidal composition containing certain pyridine or pyrimidine carboxylic acids and certain cereal and rice herbicides” (Dow AgroSciences, LLC, priority 2007, dated 2020).
Several values for one entry are separate records, joined by “and”; a condition that tells them apart may be missing. Equal entries are not always repeated.

Tests used:
Type in all cases: in vivo
[1] = tested on: blackgrass (Alopecurus myosuroides L; ALOMY); experiment: Postemergence herbicidal activity of mixtures in cereal crops (greenhouse, visual injury 0-100 percent after 20-22 days); conditions: 8.75 g/ha, Table 19
Description: Seeds of the desired test plant species were planted in Sun Gro MetroMix® 306 planting mixture, which typically has a pH of 6.0 to 6.8 and an organic matter content of about 30 percent, in plastic pots with a surface area of 103.2 square centimeters (cm^2). […] The plants were grown for 7-36 days in a greenhouse with an approximate 14 hour photoperiod which was maintained at about 18° C. during the day and 17° C. during the night. Nutrients and water were added on a regular basis and supplemental lighting was provided with overhead metal halide 1000-Watt lamps as necessary. The plants were employed for testing when they reached the second or third true leaf stage.
Treatments consisted of compound (as listed in Tables 1 through 64) and a second cereal herbicide alone and in combination. […] The concentrated stock solutions were diluted to 1.5 mg ai/mL with the addition of 2 volumes of an aqueous mixture containing acetone, water, isopropyl alcohol, DMSO, Agri-dex crop oil concentrate, and Triton® X-77 surfactant in a 64.7:26.0:6.7:2.0:0.7:0.01 v/v ratio. A dilution solution was prepared by mixing 1 volume of 97:3 v/v acetone/DMSO and 2 volumes of an aqueous mixture containing acetone, water, isopropyl alcohol, DMSO, Agri-dex crop oil concentrate, and Triton® X-77 surfactant in a 64.7:26.0:6.7:2.0:0.7:0.01 v/v ratio. Compound requirements are based upon a 12 mL application volume at a rate of 187 liters per hectare (L/ha). […] Formulated compounds were applied to the plant material with an overhead Mandel track sprayer equipped with 8002E nozzles calibrated to deliver 187 L/ha over an application area of 0.503 square meters (m^2) at a spray height of 18 inches […] above average plant canopy. Control plants were sprayed in the same manner with the solvent blank.
(§1) The treated plants and control plants were placed in a greenhouse as described above and watered by sub-irrigation to prevent wash-off of the test compounds. After 20-22 days, the condition of the test plants as compared with that of the control plants was determined visually and scored on a scale of 0 to 100 percent where 0 corresponds to no injury and 100 corresponds to complete kill.
(§2) Colby's equation was used to determine the herbicidal effects expected from the mixtures (Colby, S. R. 1967. Calculation of the synergistic and antagonistic response of herbicide combinations. Weeds 15:20-22.).
(§3) The following equation was used to calculate the expected activity of mixtures containing two active ingredients, A and B: Expected=A+B−(A×B/100)

[2] = tested on: bird's-eye speedwell (Veronica persica L; VERPE); experiment: Postemergence herbicidal activity of mixtures in cereal crops (greenhouse, visual injury)
Description: (§4) The plants were grown for 7-36 days in a greenhouse with an approximate 14 hour photoperiod which was maintained at about 18° C. during the day and 17° C. during the night. Nutrients and water were added on a regular basis and supplemental lighting was provided with overhead metal halide 1000-Watt lamps as necessary. The plants were employed for testing when they reached the second or third true leaf stage.
(§5) Treatments consisted of compound (as listed in Tables 1 through 64) and a second cereal herbicide alone and in combination. […] Control plants were sprayed in the same manner with the solvent blank.
as §1, §3

[3] = tested on: Canada thistle (Cirsium arvense L; CIRAR); experiment: as above
Description: as §4, §5, §1, §3

[4] = tested on: rigid ryegrass (Lolium rigidum L; LOLRI); experiment: as above
Description: (§6) Seeds of the desired test plant species were planted in Sun Gro MetroMix® 306 planting mixture, which typically has a pH of 6.0 to 6.8 and an organic matter content of about 30 percent, in plastic pots with a surface area of 103.2 square centimeters (cm^2). When required to ensure good germination and healthy plants, a fungicide treatment and/or other chemical or physical treatment was applied. The plants were grown for 7-36 days in a greenhouse with an approximate 14 hour photoperiod which was maintained at about 18° C. during the day and 17° C. during the night. Nutrients and water were added on a regular basis and supplemental lighting was provided with overhead metal halide 1000-Watt lamps as necessary. The plants were employed for testing when they reached the second or third true leaf stage.
(§7) Treatments consisted of compound (as listed in Tables 1 through 64) and a second cereal herbicide alone and in combination. Weighed amounts of esters (methyl) or salts (TEA [triethylammonium], K [potassium]) of 4-amino-3-chloro -6-(4-chloro-2-fluoro-3-methoxyphenyl)pyridine-2-carboxylic acid (Compound A) or of 6-amino-5-chloro-2-(4-chloro-2-fluoro-3-methoxyphenyl)pyrimidine-4-carboxylic acid (Compound B), were placed in 25 milliliter (mL) glass vials and dissolved in a volume of 97:3 v/v acetone/DMSO to obtain 4.5 milligrams (mg) active ingredient (ai)/mL stock solutions. […] The concentrated stock solutions were diluted to 1.5 mg ai/mL with the addition of 2 volumes of an aqueous mixture containing acetone, water, isopropyl alcohol, DMSO, Agri-dex crop oil concentrate, and Triton® X-77 surfactant in a 64.7:26.0:6.7:2.0:0.7:0.01 v/v ratio. A dilution solution was prepared by mixing 1 volume of 97:3 v/v acetone/DMSO and 2 volumes of an aqueous mixture containing acetone, water, isopropyl alcohol, DMSO, Agri-dex crop oil concentrate, and Triton® X-77 surfactant in a 64.7:26.0:6.7:2.0:0.7:0.01 v/v ratio. Compound requirements are based upon a 12 mL application volume at a rate of 187 liters per hectare (L/ha). Spray solutions of the second cereal herbicide and experimental compound mixtures were prepared by adding the stock solutions to the appropriate amount of dilution solution to form 12 mL spray solution with active ingredients in two- and three-way combinations. Formulated compounds were applied to the plant material with an overhead Mandel track sprayer equipped with 8002E nozzles calibrated to deliver 187 L/ha over an application area of 0.503 square meters (m^2) at a spray height of 18 inches (43 cm) above average plant canopy. Control plants were sprayed in the same manner with the solvent blank.
as §1, §2, §3

[5] = tested on: Ischaemum rugosum SALISB. (ISCRU); experiment: Postemergence herbicidal mixtures for weed control in direct seeded rice (greenhouse, visual % injury)
[6] = tested on: wild pansy (Viola tricolor L; VIOTR); experiment: Postemergence herbicidal activity of mixtures in cereal crops (greenhouse, visual injury)
Description: as §4, §5, §1, §3

[7] = tested on: scented mayweed (Matricaria chamomila L; MATCH); experiment: as above
Description: as §4, §5, §1, §3

[8] = tested on: kochia (Kochia scoparia L; KCHSC); experiment: as above
Description: as §6, §7, §1, §2, §3

[9] = tested on: black mustard (Brassica nigra L; BRSNI); experiment: as above
Description: as §6, §7, §1, §2, §3

[10] = tested on: Russian thistle (Salsola iberica L; SASKR); experiment: as above
Description: as §6, §7, §1, §2, §3

[11] = tested on: cut-leaf geranium (Geranium dissectum L; GERDI); experiment: as above
Description: as §6, §7, §1, §2, §3

[12] = tested on: chickweed (Stellaria media L; STEME); experiment: as above
Description: as §6, §7, §1, §2, §3

[13] = tested on: wild buckwheat (Polygonum convolvulus L; POLCO); experiment: as above
Description: as §6, §7, §1, §2, §3

## CCS(=O)(=O)c1nc2ccccn2c1S(=O)(=O)NC(=O)Nc1nc(OC)cc(OC)n1 [Sulfosulfuron, N-[[(4,6-dimethoxy-2-pyrimidinyl)amino]carbonyl]-2-(ethylsulfonyl)imidazo[1,2-a]pyridine-3-sulfonamide, reference compound]
[1]
  ALOMY Ob: 85%
[2]; Veronica persica, post-emergence, 8.75 g/ha, read-out: VERPE Ob
  pest or weed control at 8.75 g/ha: 30%
[3]; 8.75 g/ha
  CIRAR Ob: 10%
[4]; 8.75 g/ha, Table 19
  LOLRI: 10%

## CCc1cnc(C2=NC(C)(C(C)C)C(=O)N2)c(C(=O)O)c1 (stereo not shown) [Imazethapyr]
[5]; alone 35 g/ha
  % Injury ISCRU Ob: 20%

## Nc1cc(Cl)nc(C(=O)O)c1Cl [Aminopyralid]
[6]; 2.5 g/ha alone
  VIOTR Ob: 27%
[2]; 2.5 g/ha alone
  VERPE Ob: 0%
[7]; 2.5 g/ha alone
  MATCH Ob: 10% and 8%
[8]; 2.5 g/ha alone
  KCHSC Ob: 0%
[9]; 2.5 g/ha alone
  BRSNI Ob: 0%
[10]; 2.5 g/ha alone
  SASKR Ob: 18%
[11]; 2.5 g/ha alone
  GERDI Ob: 0%

## COCc1cnc(C2=NC(C)(C(C)C)C(=O)N2)c(C(=O)O)c1 (stereo not shown) [Imazamox]
[5]; alone 22.4 g/ha
  % Injury ISCRU Ob: 50%

## C[N+](C)(C)CCCl [Chlormequat]
[7]; 155 g/ha alone
  MATCH Ob: 0%
[8]; 155 g/ha alone
  KCHSC Ob: 0%
[9]; 155 g/ha alone
  BRSNI Ob: 0%
[12]; 155 g/ha alone
  STEME Ob: 0%
[11]; 155 g/ha alone
  GERDI Ob: 0%
[13]; 155 g/ha alone
  POLCO Ob: 10%

## CCCN(CCC)C(=O)SCc1ccccc1 [Prosulfocarb]
[7]; Matricaria, post-emergence, 500 g/ha alone, read-out: MATCH Ob
  pest or weed control at 500 g/ha: 0%
[10]; 500 g/ha alone
  SASKR Ob: 0%
[12]; Stellaria media, post-emergence, 500 g/ha alone, read-out: STEME Ob
  pest or weed control at 500 g/ha: 0%

## COc1c(Cl)ccc(-c2cc(N)c(Cl)c(C(=O)[O-])n2)c1F.[K+] [Compound A K-salt]
[6]; 8.75 g/ha alone
  VIOTR Ob: 20%
[6]; 17.5 g/ha alone
  VIOTR Ob: 48%
[6]; 35 g/ha alone
  VIOTR Ob: 42%
[2]; 8.75 g/ha alone
  VERPE Ob: 73%
[2]; 17.5 g/ha alone
  VERPE Ob: 78%
[2]; 35 g/ha alone
  VERPE Ob: 83%
[2]; alone 8.75 g/ha
  VERPE Ob: 73%
[2]; alone 17.5 g/ha
  VERPE Ob: 78%
[2]; alone 35 g/ha
  VERPE Ob: 83%
[7]; 8.75 g/ha alone
  MATCH Ob: 50%
[7]; 17.5 g/ha alone
  MATCH Ob: 62%
[7]; 35 g/ha alone
  MATCH Ob: 57%
[7]; alone 8.75 g/ha
  MATCH Ob: 50%
[7]; alone 17.5 g/ha
  MATCH Ob: 62%
[7]; alone 35 g/ha
  MATCH Ob: 57%
[8]; 8.75 g/ha alone
  KCHSC Ob: 67%
[8]; 17.5 g/ha alone
  KCHSC Ob: 77%
[8]; 35 g/ha alone
  KCHSC Ob: 90%
[8]; alone 8.75 g/ha
  KCHSC Ob: 67%
[8]; alone 17.5 g/ha
  KCHSC Ob: 77%
[8]; alone 35 g/ha
  KCHSC Ob: 90%
[10]; 8.75 g/ha alone
  SASKR Ob: 63%
[10]; 17.5 g/ha alone
  SASKR Ob: 67%
[10]; 35 g/ha alone
  SASKR Ob: 73%

## CCC(Oc1ccc(F)c(C(F)(F)F)c1)C(=O)NCc1ccccc1 (stereo not shown) [Beflubutamid]
[6]; 35 g/ha
  VIOTR Ob: 15%
[6]; 70 g/ha
  VIOTR Ob: 23%
[2]; 35 g/ha
  VERPE Ob: 15%
[2]; 70 g/ha
  VERPE Ob: 23%
[9]; 35 g/ha
  BRSNI Ob: 30%
[9]; 70 g/ha
  BRSNI Ob: 30%
[12]; 35 g/ha
  STEME Ob: 10%
[12]; 70 g/ha
  STEME Ob: 10%
[11]; 35 g/ha
  GERDI Ob: 0%
[11]; 70 g/ha
  GERDI Ob: 0%
[13]; 35 g/ha
  POLCO Ob: 10%
[13]; 70 g/ha
  POLCO Ob: 20%

## COc1cc(OC)nc(NC(=O)NS(=O)(=O)c2nc(C(F)(F)F)ccc2C(=O)O)n1 [Flupyrsulfuron, 2-[[[[(4,6-dimethoxy-2-pyrimidinyl)amino]carbonyl]amino]sulfonyl]-6-(trifluoromethyl)-3-pyridinecarboxylic acid, reference compound]
[6]; Viola tricolor, post-emergence, read-out: VIOTR Ob
  pest or weed control at 5 g/ha: 0%
[2]; 5 g/ha
  VERPE Ob: 0%
[2]; Veronica persica, post-emergence, read-out: VERPE Ob
  pest or weed control at 5 g/ha: 0%
[3]; 5 g/ha
  CIRAR Ob: 20%
[4]; 5 g/ha, Table 12
  LOLRI Ob: 0%

## CC(C)c1ccc(NC(=O)N(C)C)cc1 [Isoproturon]
[6]; Viola tricolor, post-emergence, 300 g/ha alone, read-out: VIOTR Ob
  pest or weed control at 300 g/ha: 0%
[8]; 300 g/ha alone
  KCHSC Ob: 50%
[9]; Brassica, post-emergence, 300 g/ha alone, read-out: BRSNI Ob
  pest or weed control at 300 g/ha: 40%
[10]; 300 g/ha alone
  SASKR Ob: 33%
